Laboratory results: patent US6124351A, “Amino acid derivatives having a nitric oxide synthase inhibiting action” (priority 1994, dated 2000)
“Also recorded” adds a separate entry of the source. Counter-ions that a name gives are not always drawn. Like-named read-outs stand apart in the source and are kept apart here.

Assays:
N-cNOS = target: T1, N-cNOS (Rattus norvegicus, UniProt P29476); experiment: biochemical; conditions: for IC50: N-cNOS, rat cerebral cortex, 100 μM L-[3H] arginine, 37° C., 10 min, pH 7.4, mean ± standard error
T1 construct: a soluble cytosolic fraction of the finally obtained supernate was used as the crude enzyme sample of N-cNOS; from tissue; host or cells: cerebral cortex of normal untreated male SD rats, 100,000×g soluble cytosolic fraction
T1 sequence (P29476 whole entry): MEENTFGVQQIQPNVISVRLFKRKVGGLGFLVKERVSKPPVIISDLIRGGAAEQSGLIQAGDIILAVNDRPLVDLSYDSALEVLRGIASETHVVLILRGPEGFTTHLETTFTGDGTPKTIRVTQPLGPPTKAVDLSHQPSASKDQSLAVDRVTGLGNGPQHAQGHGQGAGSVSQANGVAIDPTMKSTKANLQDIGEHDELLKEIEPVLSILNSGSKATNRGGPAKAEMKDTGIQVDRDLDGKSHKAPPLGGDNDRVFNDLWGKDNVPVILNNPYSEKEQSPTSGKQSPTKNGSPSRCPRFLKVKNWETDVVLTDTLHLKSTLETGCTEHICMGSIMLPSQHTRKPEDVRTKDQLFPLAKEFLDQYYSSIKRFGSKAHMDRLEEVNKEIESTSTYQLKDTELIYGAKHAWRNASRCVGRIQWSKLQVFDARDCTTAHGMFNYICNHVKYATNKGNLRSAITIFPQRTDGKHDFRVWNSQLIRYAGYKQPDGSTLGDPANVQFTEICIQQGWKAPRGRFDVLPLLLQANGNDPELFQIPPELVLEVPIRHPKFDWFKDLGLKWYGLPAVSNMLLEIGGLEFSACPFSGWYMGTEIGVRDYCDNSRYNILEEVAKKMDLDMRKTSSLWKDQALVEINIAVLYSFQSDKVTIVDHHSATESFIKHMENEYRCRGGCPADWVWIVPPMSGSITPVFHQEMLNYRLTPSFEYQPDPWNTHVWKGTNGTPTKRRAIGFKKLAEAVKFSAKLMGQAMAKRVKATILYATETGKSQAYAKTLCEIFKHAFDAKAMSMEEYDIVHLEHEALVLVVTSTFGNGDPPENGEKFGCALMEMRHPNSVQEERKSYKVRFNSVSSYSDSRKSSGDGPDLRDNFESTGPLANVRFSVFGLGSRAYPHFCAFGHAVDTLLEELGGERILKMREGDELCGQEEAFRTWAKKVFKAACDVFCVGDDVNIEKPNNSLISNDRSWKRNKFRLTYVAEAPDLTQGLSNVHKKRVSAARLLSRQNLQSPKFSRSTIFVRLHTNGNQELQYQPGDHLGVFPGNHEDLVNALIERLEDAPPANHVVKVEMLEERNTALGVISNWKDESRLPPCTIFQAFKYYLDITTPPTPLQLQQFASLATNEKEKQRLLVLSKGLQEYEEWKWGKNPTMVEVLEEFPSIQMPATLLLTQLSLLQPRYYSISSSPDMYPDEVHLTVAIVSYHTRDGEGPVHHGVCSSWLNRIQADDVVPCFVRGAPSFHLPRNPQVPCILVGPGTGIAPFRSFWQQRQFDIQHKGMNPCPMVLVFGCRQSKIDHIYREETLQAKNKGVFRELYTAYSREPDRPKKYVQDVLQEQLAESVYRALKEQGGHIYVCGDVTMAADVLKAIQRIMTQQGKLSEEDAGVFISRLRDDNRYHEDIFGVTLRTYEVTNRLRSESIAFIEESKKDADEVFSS
Experimental: The crude enzyme sample of N-cNOS was prepared by the following procedure. Normal untreated male SD rats (body weight, 300-400 g) were decapitated; the whole brain was immediately removed from each animal and the cerebral cortex was separated on ice. Then, 5 volumes of 50 mM Tris-HCl containing 1 mM DTT (pH 7.4) was added and the mixture was homogenized for 3 min, followed by centrifugation at 1,000×g for 10 min. The resulting supernate was further centrifuged at 100,000×g for 60 min and a soluble cytosolic fraction of the finally obtained supernate was used as the crude enzyme sample of N-cNOS.

E-cNOS = target: T2, E-cNOS (Bos taurus, UniProt P29473); experiment: Inhibition of E-cNOS, homogenate of cow pulmonary arterial endothelium cell (CPAE); conversion of L-[3H] arginine to L-[3H] citrulline; type: biochemical
T2 construct: the mixture was homogenized for 3 min to yield the crude enzyme sample of E-cNOS; endogenous in cells; host or cells: CPAE (cow pulmonary arterial endothelium cells), whole homogenate
T2 sequence (P29473 2-1205): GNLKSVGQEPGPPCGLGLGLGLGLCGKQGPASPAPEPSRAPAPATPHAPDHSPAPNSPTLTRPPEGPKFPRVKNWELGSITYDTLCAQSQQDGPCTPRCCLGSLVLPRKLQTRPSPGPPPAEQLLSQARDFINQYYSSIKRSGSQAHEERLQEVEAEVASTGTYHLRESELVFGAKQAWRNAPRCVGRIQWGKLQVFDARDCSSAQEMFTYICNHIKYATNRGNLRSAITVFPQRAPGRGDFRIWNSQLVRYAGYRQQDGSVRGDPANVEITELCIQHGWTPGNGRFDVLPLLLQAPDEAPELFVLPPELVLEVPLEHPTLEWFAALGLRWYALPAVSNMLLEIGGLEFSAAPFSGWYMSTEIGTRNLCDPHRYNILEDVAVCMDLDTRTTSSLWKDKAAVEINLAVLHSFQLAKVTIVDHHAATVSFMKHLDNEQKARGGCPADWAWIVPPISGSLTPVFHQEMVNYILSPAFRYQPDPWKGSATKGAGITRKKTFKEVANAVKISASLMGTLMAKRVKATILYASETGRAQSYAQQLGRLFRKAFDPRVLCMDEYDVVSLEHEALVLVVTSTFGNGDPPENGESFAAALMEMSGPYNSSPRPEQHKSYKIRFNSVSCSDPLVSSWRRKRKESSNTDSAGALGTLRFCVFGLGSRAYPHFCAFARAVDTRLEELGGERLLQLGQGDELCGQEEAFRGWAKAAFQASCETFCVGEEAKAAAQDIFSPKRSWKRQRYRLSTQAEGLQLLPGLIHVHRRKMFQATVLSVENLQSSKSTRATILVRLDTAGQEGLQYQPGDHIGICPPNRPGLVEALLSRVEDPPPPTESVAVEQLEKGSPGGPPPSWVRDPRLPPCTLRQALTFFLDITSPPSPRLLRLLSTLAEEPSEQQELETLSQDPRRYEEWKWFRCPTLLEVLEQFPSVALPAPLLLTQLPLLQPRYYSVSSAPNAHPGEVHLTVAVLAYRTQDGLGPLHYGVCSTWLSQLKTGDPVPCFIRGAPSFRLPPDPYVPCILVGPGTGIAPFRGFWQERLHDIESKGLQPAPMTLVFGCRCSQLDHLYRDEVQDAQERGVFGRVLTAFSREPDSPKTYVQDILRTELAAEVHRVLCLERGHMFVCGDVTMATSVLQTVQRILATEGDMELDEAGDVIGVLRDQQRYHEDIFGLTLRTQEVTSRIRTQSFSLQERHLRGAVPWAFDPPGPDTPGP
Experimental: (§1) Compounds of the invention were evaluated for their inhibitory effect against NOS isoforms in comparison with the well known NOS inhibitors. The following were used as crude enzyme fractions of the respective NOS isoforms: a soluble fraction of the rat cerebral cortex for N-cNOS and a homogenate of cow pulmonary arterial endothelium cell (CPAE) for E-cNOS, whereas for iNOS, rats were administered lipopolysaccharide (LPS, 10 mg/kg, i.p.) and lungs were removed 6 h later to prepare soluble fractions.
The crude enzyme sample of E-cNOS was prepared by the following procedure. A cow pulmonary arterial endothelium cell (CPAE) was cultured in a MEM medium containing 20% of FBS. Several days later, the cells were detached from the flask using a solution of 0.25% trypsin containing 1 mM EDTA and after addition of 0.1 M phosphate-buffered saline (PBS; pH 7.4) diluted with physiological saline, centrifugation was conducted at 1,000 rpm for 5 min. The supernate was then discarded and upon addition of a suitable amount of PBS, centrifugation was performed at 1,000 rpm for 5 min to wash the cells. The same procedure was repeated using 50 mM Tris-HCl containing 1 mM DTT (pH 7.4) to wash the cells. The precipitating cells were added an adequate amount of 50 mM Tris-HCl containing 1 mM DTT (pH 7.4) and the mixture was homogenized for 3 min to yield the crude enzyme sample of E-cNOS.
(§2) The reaction was started by addition of L-[^3 H] arginine and following incubation at 37° C. for 10 min, the reaction was terminated by addition of 2 ml of 50 mM Tris-HCl (pH 5.5) containing 1 mM EDTA and placing the mixture on ice. The reaction solution was passed through a cation-exchange resin column (Dowex AG50WX-8, Na^+ form, 3.2 ml) to separate the reaction product L-[^3 H] citrulline from the unreacted residual substrate L-[^3 H] arginine. The elute was combined with another elute resulting from the passage of distilled water (3 ml) through the column and put into a mini vial for recovery of L-[^3 H] citrulline. Thereafter, 5 ml of a scintillation fluid was added and the contained radioactivity was measured with a liquid scintillation counter to determine the amount of L-[^3 H] citrulline. The protein concentration of each crude enzyme sample was determined with a micro-assay kit of Biorad Co.
(§3) All data in Table 4 are expressed by mean ± standard error, with the number of cases indicated within parentheses.

iNOS [1] = target: T3, iNOS (Rattus norvegicus, UniProt Q06518); experiment: Inhibition of iNOS, soluble fraction of lungs of LPS-treated rats; conversion of L-[3H] arginine to L-[3H] citrulline; type: biochemical
T3 construct: a soluble cytosolic fraction of the finally obtained supernate was used as the crude enzyme sample of iNOS; from tissue; host or cells: lungs of LPS-treated rats, 100,000×g soluble cytosolic fraction
T3 sequence (Q06518 whole entry): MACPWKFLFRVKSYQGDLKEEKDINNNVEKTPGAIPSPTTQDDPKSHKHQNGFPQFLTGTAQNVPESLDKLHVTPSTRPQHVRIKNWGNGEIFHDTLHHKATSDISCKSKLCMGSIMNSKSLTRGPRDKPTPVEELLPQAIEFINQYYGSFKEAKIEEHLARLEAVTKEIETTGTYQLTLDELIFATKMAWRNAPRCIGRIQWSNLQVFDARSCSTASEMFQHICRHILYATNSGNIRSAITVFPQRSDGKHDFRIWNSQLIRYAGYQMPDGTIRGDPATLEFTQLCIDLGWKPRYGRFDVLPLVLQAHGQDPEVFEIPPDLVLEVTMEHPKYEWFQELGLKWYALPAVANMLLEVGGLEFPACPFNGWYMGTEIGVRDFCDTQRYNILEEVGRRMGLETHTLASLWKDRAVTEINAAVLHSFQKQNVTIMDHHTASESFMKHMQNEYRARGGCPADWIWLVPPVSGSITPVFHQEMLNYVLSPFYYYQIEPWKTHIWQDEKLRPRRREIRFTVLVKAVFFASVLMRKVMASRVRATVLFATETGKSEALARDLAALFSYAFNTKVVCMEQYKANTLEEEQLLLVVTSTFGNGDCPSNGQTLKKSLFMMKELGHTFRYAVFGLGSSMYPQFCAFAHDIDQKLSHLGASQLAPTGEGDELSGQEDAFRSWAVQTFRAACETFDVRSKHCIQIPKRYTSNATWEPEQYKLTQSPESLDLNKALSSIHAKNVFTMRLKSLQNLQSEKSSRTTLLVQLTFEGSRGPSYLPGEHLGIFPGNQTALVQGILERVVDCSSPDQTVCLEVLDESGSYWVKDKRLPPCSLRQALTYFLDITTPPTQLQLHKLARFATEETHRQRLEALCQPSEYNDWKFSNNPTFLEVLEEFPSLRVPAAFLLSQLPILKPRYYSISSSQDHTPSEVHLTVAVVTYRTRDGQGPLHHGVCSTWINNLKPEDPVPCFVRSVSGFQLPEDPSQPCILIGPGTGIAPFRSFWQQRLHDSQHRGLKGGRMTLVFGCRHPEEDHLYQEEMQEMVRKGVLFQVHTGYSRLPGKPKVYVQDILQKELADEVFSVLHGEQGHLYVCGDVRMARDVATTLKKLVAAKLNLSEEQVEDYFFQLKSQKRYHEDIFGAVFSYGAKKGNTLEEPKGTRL
Experimental: as §1
The crude enzyme sample of iNOS was prepared by the following procedure. Rats were administered intraperitoneally with LPS (10 mg/kg) and, 6 h later, perfused in a transcardiac manner with physiological saline containing 10 U/ml of heparin; thereafter, lungs were removed. Subsequently, 5 volumes of 50 mM Tris-HCl containing 1 mM DTT (pH 7.4) was added and the mixture was homogenized for 3 min, followed by centrifugation of the homogenate at 1,000×g for 10 min. The resulting supernate was centrifuged at 100,000×g for 60 min and a soluble cytosolic fraction of the finally obtained supernate was used as the crude enzyme sample of iNOS.
The method of measuring NOS activity was basically the same as already reported by the present inventors and consisted of determining quantitatively the conversion of a substrate L-[^3 H] arginine to a reaction product L-[^3 H] citrulline [Nagafuji et al., in Brain Edema IX (Ito et al. eds.) 60, pp. 285-288, 1994, Acta Neurochir., Springer-Verlag].
The reaction solution consisted of 100 μM L-[^3 H] arginine, a prepared NOS enzyme (6-20 μg/ml protein), 1.25 mM CaCl2, 1 mM EDTA, 10 μg/ml calmodulin, 1 mM NADPH, 100 μM tetrahydrobiopterine, 10 μM FAD, 10 μM FMN and 50 mM Tris-HCl (pH 7.4), to which one of the compounds of the invention or one of the control compounds was added.
as §2, §3

iNOS [2] = conditions: cited from earlier work
[3] = read-out: IC50 value iNOS (the concentration necessary to inhibit 50% activity), iNOS, LPS rat lung, 100 μM L-[3H] arginine, 37° C., 10 min, pH 7.4, mean ± standard error
[4] = index of selectivity, N-cNOS vs E-cNOS
[5] = index of selectivity, N-cNOS vs iNOS
[6] = E-cNOS, CPAE homogenate, 100 μM L-[3H] arginine, 37° C., 10 min, pH 7.4, mean ± standard error
[7] = iNOS, LPS rat lung, 100 μM L-[3H] arginine, 37° C., 10 min, pH 7.4, mean ± standard error
[8] = compared with existing NOS inhibitors, dihydrochloride

| SMILES | IC50 (N-cNOS) | Ratio of I50 values E-cNOS/N-cNOS (N-cNOS; [4]) | Ratio of I50 values iNOS/N-cNOS (N-cNOS; [5]) | IC50 (E-cNOS; [6]) | IC50 (iNOS [1]; [7]) | other results |
| --- | --- | --- | --- | --- | --- | --- |
| CCSC(=N)NCCC[C@H](N)C(=O)O [Example 2, δ-(S-ethylisothioureido)-L-norvaline] |  |  |  |  |  | N-cNOS inhibitory effect (in words) (N-cNOS; compared with existing NOS inhibitors): stronger N-cNOS inhibitory effect than the existing NOS inhibitors; also recorded: strong brain N-cNOS inhibitory effect; E-cNOS inhibitory effect (in words) (E-cNOS): weak E-cNOS inhibitory effect; IC50 (E-cNOS): 0.492 ± 0.315 µM; IC50 (iNOS [1]; [3]): 6.76 µM |
| CSC(=N)NCCCC[C@H](N)C(=O)O.Cl.Cl [Example 10, ε-(S-methylisothioureido)-L-norleucine dihydrochloride] | 1.26 µM | 5.1 | 8.3 | 6.41 µM | 10.4 µM |  |
| Cl.Cl.N=C(NCCC[C@H](N)C(=O)O)SCCF [Example 4, δ-(S-(2-fluoroethyl)-isothioureido)-L-norvaline dihydrochloride] | 0.0105 ± 0.0008 µM | 124.9 | 47.7 | 1.31 µM | 0.501 µM | selectivity for N-cNOS or E-cNOS (in words) (N-cNOS; N-cNOS vs E-cNOS, compared with existing NOS inhibitors, dihydrochloride): more selective inhibitory effect on N-cNOS compared with the existing NOS inhibitors; also recorded: outstandingly high selective inhibitory effect on brain N-cNOS; N-cNOS inhibitory effect (in words) (N-cNOS; [8]): stronger N-cNOS inhibitory effect than the existing NOS inhibitors; also recorded: strong brain N-cNOS inhibitory effect; N-cNOS selective inhibitory effect (in words) (N-cNOS; over existing NOS inhibitors): by far superior N-cNOS selective inhibitory effect over the existing NOS inhibitors; E-cNOS inhibitory effect (in words) (E-cNOS): weak E-cNOS inhibitory effect |
| C=CCSC(=N)NCCC[C@H](N)C(=O)O.Cl.Cl [Example 6, δ-(S-(2-propenyl)isothioureido)-L-norvaline dihydrochloride] | 0.113 ± 0.006 µM | 10.4 | 2.6 | 1.18 µM | 0.298 µM | selectivity for N-cNOS or iNOS (in words) (N-cNOS; N-cNOS vs iNOS, compared with existing NOS inhibitors, dihydrochloride): extremely high selective inhibitory effect on iNOS; iNOS inhibitory effect (in words) (iNOS [1]; [8]): by far stronger iNOS inhibitory effect than the existing NOS inhibitors; also recorded: strong iNOS inhibitory effect; iNOS selective inhibitory effect (in words) (iNOS [1]; over existing NOS inhibitors): by far superior iNOS selective inhibitory effect over the existing NOS inhibitors |
| N=C(NCCC[C@H](N)C(=O)O)NC1CC1 [L-CPA, N^G -cyclopropyl-L-arginine, reference compound] |  |  |  | 1.48 µM |  | IC50 (iNOS [1]; [3]): 7.15 µM |
| O=[N+]([O-])c1cccc2cn[nH]c12 [Example 7-NI, 7-nitroindazole, reference compound] |  |  |  |  | 6.93 µM |  |
| COC(=O)[C@@H](N)CCCNC(=N)N[N+](=O)[O-] [L-NAME, N^G -nitro-L-arginine methyl ester, reference compound] |  |  |  |  |  | IC50 (iNOS [1]; [3]): 13.5 µM |
| N=C(N)NN [AG, aminoguanidine, reference compound] |  |  | 1.3 |  |  | Ratio of I50 values E-cNOS/N-cNOS (N-cNOS): > 4.9; IC50 (iNOS [1]): 27.2 µM; selectivity for iNOS vs E-cNOS (in words) (iNOS [2]; Griffith et al. 1993): selectivity for iNOS in comparison with the E-cNOS inhibiting action; inhibiting potency and selectivity for iNOS (in words) (iNOS [2]; as a therapeutic against hypotension in sepsis): insufficient to warrant its use as a therapeutic effective against hypotension in sepsis |
| N[C@@H](CCCNC1=NCCS1)C(=O)O [Example 8, δ-(2,3-dehydrothiazolin-2-yl)amino-L-norvaline dihydrochloride] | 0.564 ± 0.284 µM | 5.9 | 9.6 | 3.32 µM | 5.41 µM |  |
| C=CCNC(=N)NCCC[C@H](N)C(=O)O [L-ALA, N^G -allyl-L-arginine, reference compound] |  | 15.2 | 12.1 |  | 12 µM |  |
| CC(=N)NCCC[C@H](N)C(=O)O [L-NIO, N^G -iminoethyl-ornithine, reference compound] |  |  |  |  | 0.458 ± 0.0858 µM |  |
| CCCSC(=N)NCCC[C@H](N)C(=O)O [Example 12, δ-(S-(n-propyl)isothioureido)-L-norvaline] | 1.34 µM | 9.3 | 3.4 | 12.5 µM | 4.5 µM |  |
